Source: publication PMC5118709, “Identification of Polo-like kinase 1 interaction inhibitors using a novel cell-based assay” (Scientific Reports, 2016)

Assays:
GST-PBD367-603 of Plk1 = GST-PBD367-603 of Plk1 (Homo sapiens, UniProt P53350); experiment: fluorescence polarization assay PBD-phosphopeptide; conditions: for IC50: read-out: FP - IC50; for IC50 / FP - IC50 (μM): Table S3
HeLa cells [1] = experiment: mitotic defect phenotypes by immunofluorescence; assay type: cell-based; conditions: 10 μM, 7 h
Experimental: HeLa cells were treated with these compounds along with the known PBD inhibitors PPG, TQ, Poloxin and the KD inhibitor BI2536 as controls, and then stained against α-Tubulin, pericentrin (a centrosome marker) and DNA (Fig. 2D). In all cases, there was a marked increase in the frequency of disorganized spindles compared with DMSO-treated control cells. This is expected as Plk1 plays multiple roles in spindle assembly and maintenance. […] Cpd 69, an analog of compound 122, induced a similar phenotype at lower concentrations (data not shown). This phenotype was not seen after treatment with BI2536.
For the mitotic defect phenotypes, 25 200 HeLa cells were plated on poly-L-lysine coated round cover slips in 24-well plates. The day after, cells were treated for 7 hours, and then washed with PHEM buffer at 37 °C before fixation in PHEM buffer containing 4% formaldehyde for 20 minutes at 37 °C. Cells were washed three times with TBS-tween 0.1% and plate was kept overnight at 4 °C. Next steps were followed as previously described except that coverslips were incubated in a dark wet chamber with antibodies. Anti-pericentrin (diluted 1:1000; Abcam), anti-α-tubulin DM1A (diluted 1:500; Sigma-Aldrich), Alexa Fluor 488 anti-rabbit and Texas-Red anti-mouse (diluted 1:200; Invitrogen) were used. Coverslips were mounted on slide using Vectashield media containing DAPI (Vector Laboratories).
Images shown in Fig. 2D were acquired on an AxioImager microscope (Carl Zeiss) with a 100x oil objective (NA 1.4 DICIII) and an AxioCam HRM camera (Carl Zeiss) using AxioVision software (Carl Zeiss).

HeLa cells [2] = experiment: mitotic index assay (phospho-Histone H3) in HeLa cells; assay type: cell-based; conditions: 25 μM
[3] = reaction with amino-protected amino acids (LC-MS); conditions: room temperature
Experimental: Vinyl sulfones are reactive species that can alkylate substrates as a result of a nucleophilic attack on the distal carbon of the vinyl group. To evaluate the potential of Cpd 161 (vinyl sulfone) to react with proteins, we tested its reaction with nucleophilic amino acid side chains groups. […] To test whether Cpd 161 could react covalently with the PBD, we incubated them together and examined the molecular mass of the protein by SDS-PAGE (Fig. 7). […] Consistent with this idea, the extent of the shift depended on the concentration of Cpd 161 used (Fig. 7B) and also on the incubation time (Fig. 7C).
To a stirred solution of electrophile (0.02 mmol) and amino acid (1- 1.5eq) in DMF (0.3 ml) were added a few drops of a diluted aqueous solution of sodium bicarbonate. The reaction was monitored using an Agilent 6120 Quadrupole LC/MS system (Agilent Technologies). In all cases, the molecular ion of the product was observed.

Sequence of GST-PBD367-603 of Plk1 (P53350 367-603): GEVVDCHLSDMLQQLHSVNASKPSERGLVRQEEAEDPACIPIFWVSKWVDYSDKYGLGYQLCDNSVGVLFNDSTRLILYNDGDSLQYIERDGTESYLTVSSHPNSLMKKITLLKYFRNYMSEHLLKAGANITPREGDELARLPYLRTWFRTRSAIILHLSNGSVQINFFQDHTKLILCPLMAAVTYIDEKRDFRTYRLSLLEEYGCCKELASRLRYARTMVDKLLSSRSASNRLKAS

Compound	IC50 (GST-PBD367-603 of Plk1) [µM]	FP - IC50 (μM) (GST-PBD367-603 of Plk1)	other results
Cc1cc(C(F)(F)F)cc(S(=O)(=O)CCOC(=O)C2CCCCC2)n1 [Cpd 160]	75		
CC1=CC(=O)C(C(C)C)=C/C1=N\OC(=O)c1ccccc1C [Poloxin]			2 > pericentrin foci (percentage of cells) (HeLa cells [1]): 27 ± 21%; Disorganized spindles (percentage of cells) (HeLa cells [1]): 61 ± 14%; mitotic index (HeLa cells [2]): around 20%; time to completion of reaction with amino-protected histidine [3]: approximately 10 minutes; time to completion of reaction with amino-protected lysine [3]: approximately 10 minutes
O=C(NCCS(=O)(=O)c1ccc(C(F)(F)F)cn1)c1ccc(Cl)cc1 [Cpd 142]		No inhibition	activity in the FP assay (GST-PBD367-603 of Plk1; SAR): activity was abolished

The next lines start with results.

IC50 (GST-PBD367-603 of Plk1) [µM]	FP - IC50 (μM) (GST-PBD367-603 of Plk1)	Compound	other results
26.1		CC(C)(C)c1ccc(C(=O)OCCS(=O)(=O)c2ccc(C(F)(F)F)cn2)cc1 [Cpd 132]	
	No inhibition	Cc1cc(C(F)(F)F)cc(SCCOC(=O)c2cccc(OC(F)(F)F)c2)n1 [Cpd 149]	
70.5		O=C(OCCS(=O)(=O)c1ccc(Cl)cn1)c1cccc(Cl)c1 [Cpd 131]	
	No inhibition	Cc1ccc(NC(=O)CCS(=O)(=O)c2ccccc2)c(Br)c1 [Cpd 145]	
